Reference: article PMC11171218, “N-Benzylated 5-Hydroxybenzothiophene-2-carboxamides as Multi-Targeted Clk/Dyrk Inhibitors and Potential Anticancer Agents” (Cancers, 2024)
Like-named read-outs stand apart in the source and are kept apart here.

Tests used:
[1] = molecular target: T1, Clk1 (Homo sapiens, UniProt P49759); test: Z'-LYTE kinase inhibition assay, Clk1; assay type: biochemical; settings: for IC50: ATP conc. equivalent to Km; for inhibition at 1 µM: read-out: Clk1 % Inh. At 1 µM
Description: (§1) 3. Experimental procedure for protein kinases and inhibition assays.
(§2) 3.1 The Z ́ -LYTE biochemical assay for screening and IC 50 determination for Clk1, Dyrk1A, Dyrk1B, Clk2 and Clk3 kinases.
(§3) The assay employs a fluorescence-based, coupled-enzyme format and is based on the differential sensitivity of phosphorylated and non-phosphorylated peptides to proteolytic cleavage. The peptide substrate is labeled with two fluorophores-one at each end-that make up a FRET pair. In the primary reaction, the kinase transfers the gamma-phosphate of ATP to a single tyrosine, serine, or threonine residue in a synthetic FRET-peptide. In the secondary reaction, a site-specific protease recognizes and cleaves non-phosphorylated FRET-peptides. Phosphorylation of FRET-peptides suppresses cleavage by the Development Reagent. Cleavage disrupts FRET between the donor (i.e., coumarin) and acceptor (i.e., fluorescein) fluorophores on the FRET-peptide, whereas uncleaved, phosphorylated FRET-peptides maintain FRET. A ratiometric method, which calculates the ratio (the Emission Ratio) of donor emission to acceptor emission after excitation of the donor fluorophore at 400 nm, is used to quantitate reaction progress. Both cleaved and uncleaved FRET-peptides contribute to the fluorescence signals and therefore to the Emission Ratio. The extent of phosphorylation of the FRET-peptide can be calculated from the Emission Ratio. The Emission Ratio will remain low if the FRET-peptide is phosphorylated (i.e., no kinase inhibition) and will be high if the FRET-peptide is non-phosphorylated (i.e., kinase inhibition).
(§4) The IC 50 values were determined for compounds displaying significant % inhibition in the screening step. IC 50 determination was done through testing at a range of concentrations with two […]
two independent experiments.
3.1.1 Clk1 kinase assay specific conditions:
The 2x Clk1 / Ser/Thr 09 mixture is prepared in 50 mM HEPES pH 7.5, 0.01% BRIJ-35, 10 mM MgCl 2, 1 mM EGTA. The final 10 μL kinase reaction consists of 30 - 120 ng Clk1 and 2 μM Ser/Thr 09 in 50 mM HEPES pH 7.5, 0.01% BRIJ-35, 10 mM MgCl 2, 1 mM EGTA. After the 1 h

[2] = molecular target: Dyrk1A (Homo sapiens, UniProt Q13627); test: Z'-LYTE kinase inhibition assay, Dyrk1A; assay type: biochemical; settings: read-out: Dyrk1A % Inh. At 1 µM
Description: as §1, §2, §3, §4
(§5) two independent experiments. […]
3.1.2 Dyrk1A kinase assay specific conditions:
The 2x Dyrk1A / Ser/Thr 18 mixture is prepared in 50 mM HEPES pH 7.5, 0.01% BRIJ-35, 10 […]
2 µM Ser/Thr 18 in 50 mM HEPES pH 7.5, 0.01% BRIJ-35, 10 mM MgCl 2, 1 mM EGTA. […]
(§6) Development Reagent A is added. […]
(§7) MgCl2, 1 mM EGTA, 0.02% NaN3. […]

[3] = molecular target: Dyrk1B (Homo sapiens, UniProt Q9Y463); test: Z'-LYTE kinase inhibition assay, Dyrk1B; assay type: biochemical; settings: read-out: Dyrk1B % Inh. At 1 µM
Sequence of Dyrk1B (Q9Y463 whole entry): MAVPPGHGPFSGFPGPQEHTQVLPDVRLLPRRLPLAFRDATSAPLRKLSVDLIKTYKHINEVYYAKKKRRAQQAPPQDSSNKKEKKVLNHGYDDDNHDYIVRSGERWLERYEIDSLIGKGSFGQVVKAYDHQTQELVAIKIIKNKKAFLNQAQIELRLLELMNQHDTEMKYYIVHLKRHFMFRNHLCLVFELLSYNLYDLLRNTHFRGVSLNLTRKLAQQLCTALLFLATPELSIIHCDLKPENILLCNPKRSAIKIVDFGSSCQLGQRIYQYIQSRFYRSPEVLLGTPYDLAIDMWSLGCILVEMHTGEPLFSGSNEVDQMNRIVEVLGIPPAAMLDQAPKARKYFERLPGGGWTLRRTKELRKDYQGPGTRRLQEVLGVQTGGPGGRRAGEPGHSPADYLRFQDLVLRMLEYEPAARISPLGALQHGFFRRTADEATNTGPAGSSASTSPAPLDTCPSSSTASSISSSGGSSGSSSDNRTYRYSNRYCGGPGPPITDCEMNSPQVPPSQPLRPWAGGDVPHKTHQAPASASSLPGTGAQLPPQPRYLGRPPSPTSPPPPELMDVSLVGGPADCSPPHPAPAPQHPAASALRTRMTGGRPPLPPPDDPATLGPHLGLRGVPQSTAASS
Description: as §1, §2, §3, §4, §5
3.1.3 Dyrk1B kinase assay specific conditions:
The 2X Dyrk1B / Ser/Thr 18 mixture is prepared in 50 mM HEPES pH 6.5, 0.01% BRIJ-35, 10 […]
mM MgCl2, 1 mM EGTA, 0.02% NaN3.
as §6, §7

[4] = molecular target: T1, Clk1; set-up: method as in PMID 28561591, PMID 25221649; settings: Figure 1; ref [38],[45]; cited from earlier work

T1 sequence (P49759 whole entry): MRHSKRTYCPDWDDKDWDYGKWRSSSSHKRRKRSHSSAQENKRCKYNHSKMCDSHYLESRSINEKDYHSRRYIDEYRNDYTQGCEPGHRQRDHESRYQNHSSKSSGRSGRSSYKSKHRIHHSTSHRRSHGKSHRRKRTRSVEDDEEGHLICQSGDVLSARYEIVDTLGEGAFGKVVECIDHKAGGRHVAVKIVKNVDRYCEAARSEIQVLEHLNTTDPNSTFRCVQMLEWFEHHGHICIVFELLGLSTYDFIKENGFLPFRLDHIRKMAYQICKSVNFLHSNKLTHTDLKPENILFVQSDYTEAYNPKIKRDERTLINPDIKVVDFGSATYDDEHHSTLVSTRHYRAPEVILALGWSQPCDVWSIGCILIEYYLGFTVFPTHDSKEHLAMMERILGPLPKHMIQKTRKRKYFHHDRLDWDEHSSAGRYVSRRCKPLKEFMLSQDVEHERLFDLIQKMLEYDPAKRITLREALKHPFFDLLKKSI

Compound: O=C(NCCc1ccccc1)c1cc2cc(O)ccc2s1 [Compound 29, 5-Hydroxy-N-phenethylbenzo[b]thiophene-2-carboxamide]
- IC50 [1]: 753 nM
- inhibition at 1 µM [1]: 61%
- melting point: 99.2 to 101.1 °C
- inhibition at 1 µM [2]: 29%
- inhibition at 1 µM [3]: 48%

Compound: O=C(NCCc1c[nH]c2ccccc12)c1cc2cc(O)ccc2s1 [Compound 30, N-(2-(1H-Indol-3-yl)ethyl)-5-hydroxybenzo[b]thiophene-2-carboxamide]
- IC50 [1]: 350 nM
- inhibition at 1 µM [1]: 74%
- melting point: 211.4 to 213 °C
- inhibition at 1 µM [2]: 20%
- inhibition at 1 µM [3]: 40%

Compound: CC(=O)c1cc2cc(O)ccc2s1 [Compound (i)]
- IC50 [4]: 50 nM

Compound: Cc1ccc(C(=O)c2cc3cc(O)ccc3s2)cc1O [Compound (ii)]
- IC50 [4]: 60 nM
